Series [1] has as its target T1, ASGPR on the surface of HepG2 cells and α-DNP antibody (Homo sapiens, UniProt P07306+P07307).
T1 sequence (P07306 1-291): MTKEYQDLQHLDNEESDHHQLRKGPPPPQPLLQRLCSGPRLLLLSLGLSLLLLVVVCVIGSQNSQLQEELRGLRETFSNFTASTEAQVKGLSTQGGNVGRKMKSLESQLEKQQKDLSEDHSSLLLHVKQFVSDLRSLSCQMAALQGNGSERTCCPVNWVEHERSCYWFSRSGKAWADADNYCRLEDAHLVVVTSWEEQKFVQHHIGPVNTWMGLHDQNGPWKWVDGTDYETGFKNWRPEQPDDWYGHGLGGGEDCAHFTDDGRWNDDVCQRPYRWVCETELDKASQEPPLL
T1 sequence (P07307 1-311): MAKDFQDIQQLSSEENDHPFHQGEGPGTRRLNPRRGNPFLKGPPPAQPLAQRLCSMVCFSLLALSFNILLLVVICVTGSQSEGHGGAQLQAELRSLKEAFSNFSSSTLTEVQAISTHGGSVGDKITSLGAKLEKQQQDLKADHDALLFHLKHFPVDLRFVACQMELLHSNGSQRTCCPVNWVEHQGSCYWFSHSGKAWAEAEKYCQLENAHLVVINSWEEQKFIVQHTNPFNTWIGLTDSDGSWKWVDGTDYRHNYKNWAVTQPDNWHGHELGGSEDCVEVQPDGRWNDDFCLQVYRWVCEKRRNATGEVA
The series is described as follows: DNP-GN3-mediated ternary complex formation: association of fluorescently labeled α-DNP antibody with HepG2 cells in suspension. Format: cell-based. The conditions noted are these: for concentration of DNP-GN3 eliciting half-maximal fluorescence association: FIG. 86A. The text has this:
It was investigated whether DNP-GN3 could mediate the formation of a ternary complex between a fluorescently labeled α-DNP antibody and ASGPR on the surface of immortalized human hepatocyte HepG2 cells in suspension. […] The observed bell-shaped response to DNP-GN3 concentration is consistent with the prozone effect commonly observed in systems wherein a ternary complex is formed.

Series [2] relates to HepG2 cells. The series is described as follows: Subcellular localization and degradation of α-DNP antibody endocytosed with DNP-GN3 (microscopy, western blotting). The series is classed as cell-based, human. On the procedure: In addition, western blotting with an antibody directed to Alexa Fluor 488 was used to determine if endocytosed fluorescently labeled α-DNP antibodies are degraded in vitro. […] Signal arising from Alexa Fluor 488 in cell lysates was associated with only full-length antibody after two hours of incubation. After six hours, a lower molecular weight fluorophore-associated protein fragment between 37 and 50 kDa began to appear. An additional protein fragment with a molecular weight between 25 and 37 kDa was observed after 24 hours. […] Together with the above immunofluorescence studies showing the colocalization of α-DNP antibody-derived fluorescence with lysosomes, these studies support that α-DNP antibody degradation is mediated by lysosomal proteases. Lysosomal degradation is further consistent with a mechanism dependent on ASGPR.

For the next series, the system named is α-DNP antibody. Kind of series: In vivo depletion of α-DNP antibody from serum in mice (ELISA). As to conditions: for serum α-DNP antibody levels compared to PBS: FIG. 94; for α-DNP antibody depleted from serum 24 hours after a single dose: vehicle control 24%. On the procedure: FIG. 94 illustrates that serum levels of α-DNP antibody decrease more rapidly following repeated treatment with DNP-GN3. Serum antibody levels were measured using an ELISA assay. Each experimental group contained three mice. Statistical differences in experiments involving in vivo depletion of α-DNP antibody were assessed by repeated measures two-way ANOVA with Tukey's tests for post-hoc comparison of simple effects between each of the treatment groups and PBS.
Single doses of DNP-GN3 were also found to be efficacious at mediating α-DNP antibody depletion, albeit less effectively than daily dosing (FIG. 96). […] Therefore, it was concluded that DNP-GN3 is able to mediate the depletion of a monoclonal antibody from serum, and functions across a wide range of target protein concentrations and dosing regimens.
DNP-GN3 was also found to be efficacious in depleting polyclonal α-DNP antibody from serum collected from mice immunized with DNP-keyhole limpet haemocyanin (KLH) (FIG. 97). […] Thus, the small molecule DNP-GN3 is not restricted in function to only monoclonal mouse antibodies, but is also effective at removing polyclonal α-DNP antibodies from circulation in mice.
For orientation: In an ELISA, binding on a coated surface is turned into a signal by an enzyme label.

Series [3] concerns HepG2 cells. Kind of series: DNP-AF3-mediated α-DNP antibody endocytosis by HepG2 cells (flow cytometry). The series is classed as cell-based, human. As to conditions: α-DNP antibody 1 nM. On the procedure: The intracellular fluorescence of cells that were incubated at 37° C. with both fluorescently labeled α-DNP antibody and DNP-AF3 for a given amount of time was examined. Cells were then washed, removed from the plate with trypsin, and subjected to flow cytometry.
It was then determined if reagents which inhibit ternary complex formation inhibit endocytosis mediated by DNP-AF3.
Next, whether inhibitors of specific endocytic pathways inhibited α-DNP antibody endocytosis was determined (FIG. 106).
For orientation: In flow cytometry, cells or beads pass a laser one at a time.

For series [4], the system named is HepG2 cells. The series is described as follows: DNP-GN3-mediated endocytosis of fluorescently labeled α-DNP antibody by adherent HepG2 cells. The series is classed as cell-based, human. The conditions noted are these: six and twelve hours; FIG. 87A-87B.
Series [5] has as its system HepG2 cells. Kind of series: Colocalization of endocytosed MIF protein in HepG2 cells. Format: cell-based, human. As to conditions: MIF 100 nM, MIF-GN3 200 nM; FIG. 133. The procedure: FIG. 133 illustrates that cells treated with MIF-GN3 and exogenous MIF accumulate MIF punctate in cells. […] MIF was present at a concentration of 100 nM, and MIF-GN3 was present at a concentration of 200 nM.
In order to investigate the subcellular localization of endocytosed MIF protein, colocalization studies were performed in HepG2 cells. After 12 hours of MIF-GN mediated endocytosis, several punctae displaying MIF-derived fluorescence were present in each cell.

In series [6] the test system is HepG2 cells. The series is described as follows: MIF-GN3-mediated endocytosis of Alexa 488-labeled human MIF by HepG2 cells. The conditions noted are these: FIG. 131. The procedure: Human MIF protein was fluorescently labeled with Alexa 488 NHS ester, then incubated with HepG2 cells in the presence of varying levels of MIF-GN3.
The ability of MIF-GN3 to mediate MIF endocytosis over a wide range of target protein concentrations was assessed.
Next, inhibitors of various endocytic pathways were utilized to determine if MIF-GN3 mediates MIF endocytosis in a manner consistent with ASGPR (FIG. 132).

Series [7] in a line: Pharmacokinetics of MIF-GN3 in male nude mice. Format: in vivo. As to conditions: one mpk dose. The text has this:
The ability of MIF-GN3 to mediate the depletion of injected human MIF from serum in mice was studied. First, the pharmacokinetics of the bifunctional molecule were investigated.

Values joined by “and” are separate entries in the source; they are usually repeats but may differ in a detail not shown here. Equal values may be shown once.

As for `CC(=O)NC1C(OCCOCCOCCNC(=O)CCOCC(COCCC(=O)NCCOCCOCCOC2OC(CO)C(O)C(O)C2NC(C)=O)(COCCC(=O)NCCOCCOCCOC2OC(CO)C(O)C(O)C2NC(C)=O)NC(=O)CNC(=O)COCCOCCOCCNc2ccc([N+](=O)[O-])cc2[N+](=O)[O-])OC(CO)C(O)C1O` (stereo not shown) [DNP-GN3], in series [1] (DNP-GN3), the “concentration of maximal ternary complex formation” value was 20 nM and 40 nM. Also, the “concentration of DNP-GN3 eliciting half-maximal fluorescence association” value was 0.12 µM in series [1] (higher of the two half-maximal concentrations of the bell-shaped response (prozone effect)) and 0.0074 µM in series [1] (lower of the two half-maximal concentrations of the bell-shaped response). The “colocalization of endocytosed α-DNP antibody with lysosome membrane protein LAMP2” value with HepG2 cells [2] (after 12 hours, FIG. 91B) is on record as “strong colocalization”. In addition, the “degradation of endocytosed α-DNP antibody (western blot for Alexa Fluor 488)” value with HepG2 cells [2] (cell lysates, 2 to 24 hours, FIG. 92A) is “endocytosed α-DNP antibody is degraded in HepG2 cells”. Moreover, the “serum α-DNP antibody levels compared to PBS” value is reported as “significantly reduced” in the series with α-DNP antibody (200 μg monoclonal mouse IgG2 α-DNP antibody, daily and twice-daily 1 mpk, 21 days, nude mice); “significant decrease” in the series on α-DNP antibody (initial antibody dose of 500 μg, daily treatment). Further, the “α-DNP antibody depleted from serum 24 hours after a single dose” value with α-DNP antibody (1 mpk, FIG. 96) amounted to 52%; with α-DNP antibody (10 mpk, FIG. 96) it was 34%. Moreover, in the series on α-DNP antibody (100 mpk, FIG. 96), the “α-DNP antibody depletion after a single dose” value is reported as “Significant depletion”. In the series with α-DNP antibody (i.p. injection, FIG. 79A), the “degradation of injected anti-DNP IgG antibodies in mouse serum” value is “can induce degradation”. In addition, the “depletion of polyclonal α-DNP antibody from serum compared to PBS” value in the series on α-DNP antibody (mice immunized with DNP-KLH, daily treatment, each time point, FIG. 97) was “significantly more polyclonal α-DNP antibody was removed”. Also, the “uptake of α-DNP antibody at low target protein concentration” value in the series on HepG2 cells [3] is given as “not effective”. Further, in the series on HepG2 cells [4], the “intracellular fluorescence of adherent HepG2 cells” value is “dependent on the concentration of both DNP-GN3 and α-DNP antibody”.

Turning to `CC(=O)N[C@H]1[C@H](OCCOCCOCCNC(=O)CCOCC(COCCC(=O)NCCOCCOCCO[C@@H]2O[C@H](CO)[C@H](O)[C@H](O)[C@H]2NC(C)=O)(COCCC(=O)NCCOCCOCCO[C@@H]2O[C@H](CO)[C@H](O)[C@H](O)[C@H]2NC(C)=O)NC(=O)CNC(=O)CCCOc2ccc3nc(-c4cn(-c5ccc(O)c(F)c5)nn4)ccc3c2)O[C@H](CO)[C@H](O)[C@@H]1O` [MIF-GN3], the “colocalization of MIF signal with LAMP2” value in the series with HepG2 cells [5] was “strong colocalization”. Further, the “fluorescence of cells relative to cells not treated with bifunctional molecule” value in the series on HepG2 cells [6] (MIF protein 10 nM, 200 nM MIF-GN3) was found to be 4 fold. The “MIF uptake at high concentration compared to lower concentrations” value with HepG2 cells [6] (MIF protein 100 nM, MIF-GN3 5.00 μM) is “slight decrease in MIF uptake”. In addition, in series [7], the half-life in serum was determined as 25.8 min and the “time of maximum plasma concentration” value is 15 min.

The values above are taken from US20250269043A1, “TARGETED BIFUNCTIONAL DEGRADERS” (YALE UNIVERSITY, priority 2019, published 2025).
